Structures can show the parent of a compound that is named as a salt.
What was measured:
[1] = Quenching activity towards HNE (residual HNE by HPLC-UV); details: for HNE Quenching (%) 1 h: percentage of quenched HNE at 1 h; for HNE Quenching (%) 2 h: percentage of quenched HNE at 2 h; for HNE Quenching (%) 3 h: percentage of quenched HNE at 3 h
Procedure: The reactivity towards HNE was tested for each peptide separately, by monitoring within 3 h from the incubation the residual HNE via HPLC-UV, as previously reported. Minor modifications of the method were implemented. A Kinetex C18 column (25 mm × 2.10 mm, particle size 2.6 µm, pore size 100 Å, Phenomenex, Castel Maggiore, Italy) was used instead and the elution of residual HNE was provided at 40 °C by 300 µL/min flow rate of aqueous ammonium acetate (10 mM) containing 20% acetonitrile. For active compounds, the formation of HNE adduct was confirmed by mass spectrometry. Samples were diluted in ACN/H2O/formic acid, 50/50/0.1, v/v/v solution down to a suitable concentration and pumped at 5 µL/min directly into ESI capillary (Finnigan Ion Max, Thermo Fisher Scientific, Rodano, Italy) and 3.5 kV voltage, 270 °C capillary temperature, 35 V capillary voltage and 50 V tube lens were applied to ensure sample nebulization. Spectra were acquired in positive ion mode for 5 × 10^5 ions per scan, by using a LTQ-Orbitrap XL-ETD analyzer (Thermo Fisher Scientific, Rodano, Italy) operating in a 150–700 m/z scan range at a resolution of (FWHM at m/z 400).

[2] = Serum stability (LC-MS, MRM); type: in vitro ADME, human; details: 37 °C; for half-life at 5 µM: human, read-out: Serum Stability t1/2
Procedure: (§1) Serum stability was measured as previously described. Briefly, analytes were spiked separately in pre-heated (37 °C) serum aliquots down to a final concentration of 5 µM. The residual concentration of analyte was measured at the beginning and after 5, 15, 30, 60 and 120 min by means of LC-MS. Prior to analyses, hydrolysis was blocked at the desired time points diluting with 9 volumes of acetonitrile at 4 °C to provide protein precipitation. The analyte residual concentration was then measured in the supernatants obtained upon centrifugation. The same method was also used to evaluate the inhibition effect of CHP by incubating serum samples with equimolar amounts of carnosine and CHP.

[3] = target: T1, human serum carnosinase (hCN1) (Homo sapiens, UniProt Q96KN2); test: Inhibition effect of CHP on serum carnosinase (carnosine hydrolysis in serum); type: biochemical; details: serum incubated with equimolar carnosine and CHP; decrease not statistically significant
T1 construct: from tissue; host or cells: serum
T1 sequence (Q96KN2 26-507): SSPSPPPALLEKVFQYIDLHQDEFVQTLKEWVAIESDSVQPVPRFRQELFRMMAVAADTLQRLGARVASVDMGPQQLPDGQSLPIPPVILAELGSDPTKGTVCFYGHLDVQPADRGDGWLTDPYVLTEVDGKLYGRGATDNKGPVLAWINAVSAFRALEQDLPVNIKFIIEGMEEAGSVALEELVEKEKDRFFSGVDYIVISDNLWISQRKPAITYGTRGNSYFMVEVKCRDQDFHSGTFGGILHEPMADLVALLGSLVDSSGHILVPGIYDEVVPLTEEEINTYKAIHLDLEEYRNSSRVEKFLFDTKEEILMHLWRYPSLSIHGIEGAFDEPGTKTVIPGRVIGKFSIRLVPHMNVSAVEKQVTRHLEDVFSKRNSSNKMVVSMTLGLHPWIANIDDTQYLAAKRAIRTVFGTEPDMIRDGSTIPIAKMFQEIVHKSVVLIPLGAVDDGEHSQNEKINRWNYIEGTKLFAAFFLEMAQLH
Procedure: as §1

[4] = design: method as in PMID 1424308; details: cited from earlier work

Row | SMILES | HNE Quenching (%) 1 h [1] | HNE Quenching (%) 2 h [1] | HNE Quenching (%) 3 h [1] | half-life at 5 µM [2] | retained carnosine hydrolytic activity [3] | Serum Stability t1/2 (min) ([2]; 5 µM) | half-life in vivo [4]
1 | NC(=O)C(Cc1c[nH]cn1)NC(=O)C1CCCN1 [ProHis-NH2, L-Pro-L-His-NH2] | 17.08 ± 1.11% | 27.66 ± 0.58% | 36.29 ± 1.08% | 128 min | – | – | –
2 | NC(Cc1cnc[nH]1)C(=O)N1CCCC1C(=O)O (centres unmarked) [HisPro, His-Pro] | −0.33 ± 0.45% | −0.26 ± 0.53% | 3.54 ± 1.66% | 3.08 min | – | – | –
3 | O=C1NC(Cc2cnc[nH]2)C(=O)N2CCCC12 (centres unmarked) [CHP, Cyclo(His-Pro)] | 2.42 ± 0.71% | 5.46 ± 0.78% | 8.09 ± 0.77% | – | 85 ± 5% | Stable | –
4 | O=C(O)C(Cc1c[nH]cn1)NC(=O)C1CCCN1 [ProHis, L-Pro-L-His-OH dihydrochloride] | 20.39 ± 1.14% | 36.94 ± 0.80% | 49.87 ± 1.06% | 33.4 min | – | – | –
5 | NCCC(=O)N[C@@H](Cc1cnc[nH]1)C(=O)O [L-carnosine, reference compound] | 17.04 ± 6.17% | 29.05 ± 4.33% | 40.40 ±3.73% | 1.17 min | – | – | –
6 | NC(=O)[C@@H]1CCCN1C(=O)[C@H](Cc1cnc[nH]1)NC(=O)[C@@H]1CCC(=O)N1 [TRH, thyrotropin-releasing hormone, reference compound] | 2.31 ± 6.72% | 4.16 ± 6.16% | 6.17 ± 6.41% | 24.4 min | – | – | 6.5 min

From paper PMC9103439, “Cyclo(His-Pro) Exerts Protective Carbonyl Quenching Effects through Its Open Histidine Containing Dipeptides” (Nutrients, 2022)
